From patent US5208243A, “5-isoquinolinesulfonamides” (Adir et Compagnie, priority 1991, dated 1993)

Columns and labels:
rabbit aorta [1] = assay: Contraction of rabbit aorta induced by phorbol ester in a normal physiological medium; design: species or system New Zealand rabbit; settings: Oryctolagus cuniculus, TPA 10^-5 M, read-out: IC50, phorbol ester stimulus
Protocol: (§1) Studies are carried out on rings, 3 mm in length, […] The vascular rings are immersed in a normal physiological solution or in a physiological solution lacking calcium (+0.2 mM of the chelating agent EGTA), which is thermostatically regulated at 37° C. and aerated with a 95% O2 +5% CO2 mixture. The rings are linked to a STATHAM tension sensor (UC2-GOULD). The optimal tension for each vessel is applied and a stabilization period of 90 min is observed for the preparations. a) Antivasoconstrictive activity of the compounds of the invention in a physiological medium.

guinea pig left auricle = assay: Veratridine intoxication of guinea pig left auricle; settings: compound 10^-5 M
Protocol: a) Effect of the compounds of the invention on the intoxication of guinea pig left auricle.
The left auricles are removed from guinea pigs (350-450 g) anesthetized with sodium pentobarbital (30 mg/kg). The auricles are attached to a STATHAM tension sensor (UC2-GOULD) and the initial tension applied is 0.5 grams.
The auricles are electrically stimulated at 1 Hz by means of platinum electrodes. The intoxications are produced either by the addition of ouabain (10^-6 M) or by the addition of veratridine (10^-5 M). The test compounds are added 15 minutes before adding the toxic agent.

rabbit aorta [2] = assay: Vascular contraction of rabbit aorta induced by PDGF; design: species or system New Zealand rabbit; settings: Oryctolagus cuniculus, 10^-5 M, preincubated 15 minutes
Protocol: as §1

rabbit aorta [3] = assay: Contraction of rabbit aorta induced by angiotensin II in a medium without calcium; design: species or system New Zealand rabbit; settings: Oryctolagus cuniculus, 10^-5 M, medium lacking calcium
Protocol: as §1, with “b)” for “a)”, “medium without calcium.” for “physiological medium.”

[4] = tested on: vasopressor effect of phenylephrine; assay: Cardiovascular reactivity to phenylephrine in wakeful rats, oral administration; format: in vivo, WISTAR rat
Protocol: After a 30 to 60 min period of stabilization of wakeful WISTAR rats, a range of concentrations of phenylephrine (between 0 and 16 μg/kg) is injected intravenously.
Reading of the mean blood pressure and heart rate is carried out at the point where the pressor effect reaches its maximum. After a washing time of at least 2 hours, the test compound is administered intravenously (10 mg/kg) followed 15 minutes later by a new range of phenylephrine.
b) Effects of the compounds of the invention, administered orally, on the cardiovascular reactivity of phenylephrine.
The procedure is carried out as above but the intravenous administration of the test compounds is replaced by oral administration (5, 10 and 20 mg/kg) of the test compound. The phenylephrine range is repeated 0.5, 1, 2, 3, 4, 5 and 6 hours after administration of the compound.

rabbit aorta [5] = assay: Contraction of rabbit aorta induced by endothelin in a normal physiological medium; design: species or system New Zealand rabbit; settings: Oryctolagus cuniculus, read-out: IC50, endothelin stimulus
Protocol: as §1

Rabbit iliac artery = assay: Contraction of rabbit iliac artery induced by caffeine in a medium without calcium; design: species or system New Zealand rabbit; settings: Oryctolagus cuniculus, 10^-5 M, medium lacking calcium
Protocol: as §1, with “b)” for “a)”, “medium without calcium.” for “physiological medium.”

CN(CC1CCN(CCCOc2ccc(F)cc2)CC1)S(=O)(=O)c1cccc2cnccc12.Cl.Cl [Example 17, N-Methyl-N-{[1-[3-(p-fluorophenoxy)propyl]-4-piperidyl]methyl}-5-isoquinolinesulfonamide dihydrochloride]
IC50 (rabbit aorta [1]): 21 µM | % contraction (guinea pig left auricle; 5 min): 218.8 ± 50.8% | % contraction (guinea pig left auricle; 15 min): 181 ± 51% | Contracture (%) (guinea pig left auricle; 15 min): 0% | Contracture (%) (guinea pig left auricle; 30 min): 0% | % contraction (guinea pig left auricle; 60 min): 157.1 ± 42.6% | Contracture (%) (guinea pig left auricle; 60 min): 0% | inhibition at 10 µM (rabbit aorta [2]): 30% | inhibition at 10 µM (rabbit aorta [3]): 21% | reduction of the vasopressor effect of phenylephrine ([4]; 20 mg/kg oral, maximum after 2 hours): 60% | time of appearance of the inhibitory activity ([4]; after oral administration): 30 min | time of maximum inhibitory activity ([4]; after oral administration, 20 mg/kg): 2 h | duration for which the inhibitory activity remains stable ([4]; oral): 6 h | IC50 (rabbit aorta [5]): 3.3 µM | inhibition at 10 µM (Rabbit iliac artery): 63%
